Patent US20250221944A1, “COMPOSITION FOR PREVENTING OR TREATING MULTIPLE MYELOMA COMPRISING NOVEL CHROMANON COMPOUND AS ACTIVE INGREDIENT” (KBLUEBIO INC, priority 2022, published 2025)

Tests used:
[1] = initial acute toxicity evaluation (liver, kidney, cardiac markers); type: in vivo; settings: rats, 5 mg/kg intravenously (femoral vein), blood 3 hours later
Protocol: As an initial toxicity evaluation of KBB-NX series synthetic compounds, KBB-NX-16 and KBB-NX-20 were injected intravenously into the femoral vein of rats at a dose of 5 mg/kg and blood was collected 3 hours later to test for markers of liver toxicity (marker ALT), nephrotoxicity (BUN, creatinine) and cardiotoxicity (CK-MB, myoglobin).

[2] = tested on: RPMI8226-GFP-FLUC cells; test: mouse model of multiple myeloma (RPMI8226-GFP-FLUC, tail vein); type: in vivo, NSG mice; settings: 5 mg/kg intravenously, 2 days per week for 3 cycles, untreated group all died on day 50
Protocol: A total of 12 male NSG (NOD scid gamma) mice were used. The animals were housed in a semi-specific pathogen free (Semi-SPF) animal house at the Chonnam National University Center for Biomedical Science Convergence at a temperature of 20-24° C., humidity of 40-60%, and a 12-hour light/dark cycle, with 5 animals per cage. Sterile water and feed were provided ad libitum, and all experimental procedures were in accordance with the Animal welfare act and approved by the Institutional Animal Care and Use Committee of Chonnam National University (Approval No.: CNU IACUC-H-2020-36). […]
Mice were injected with RPMI8226-GFP-FLUC cells, and 8 days later, cancer formation was determined using an in vivo imaging system (IVIS) (NightOWL II LB983 NC100, Berthold, Germany). […]
Meanwhile, a multiple myeloma cell line (RPMI8226) was transfected with a puromycin resistance gene and a luciferase-GFP gene using a lentiviral vector at the EF1a promoter site, and the dynamics of MM cells in mice were identified and monitored by an in vivo bioluminescence imaging assay (FIG. 28). The transgenic multiple myeloma cell line, which can be monitored in vivo, was injected 1×10^7 cells/ml through the tail vein of 6-11 week old combined immunodeficient NSG mice to establish a mouse model of multiple myeloma. […]

SMILES: COc1cc(O)cc2c1C(=O)CC(c1ccc(C)s1)O2 (centres unmarked) [KBB-NX-20, 7-hydroxy-5-methoxy-2-(5-methylthiophene-2-yl)chroman-4-one]
- cardiotoxicity (CK-MB, myoglobin) [1]: did not exhibit significant
- hepatotoxicity (marker ALT) [1]: did not exhibit significant
- nephrotoxicity (BUN, creatinine) [1]: did not exhibit significant

SMILES: COc1cc(O)c(CC=C(C)C)c2c1C(=O)CC(c1ccc(C(C)C)cc1)O2 (centres unmarked) [KBB-NX-16, 7-hydroxy-2-(4-isopropylphenyl)-5-methoxy-8-(3-methylbut-2-en-1-yl)chroman-4-one]
- cardiotoxicity (CK-MB, myoglobin) [1]: did not exhibit significant
- hepatotoxicity (marker ALT) [1]: did not exhibit significant
- nephrotoxicity (BUN, creatinine) [1]: did not exhibit significant

SMILES: COc1cc(O)cc(O)c1C(=O)/C=C/c1ccc(O)cc1 [KBB-NX-2, (E)-1-(2,4-dihydroxy-6-methoxyphenyl)-3-(4-hydroxyphenyl)prop-2-en-1-one]
- survival after transplantation [2]: 64 days

SMILES: Nc1cccc2c1CN(C1CCC(=O)NC1=O)C2=O (centres unmarked) [lenalidomide, 3-(4-amino-1-oxoisoindolin-2-yl)piperidine-2,6-dione, reference compound]
- survival after transplantation [2]: 64 days
